US20130143855A1, “METHOD TO ALLEVIATE DIABETIC END STAGE RENAL DISEASE” (BOARD OF REGENTS OF THE UNIVERSITY OF TEXAS SYSTEM, priority 2010, published 2013)

What was measured:
hsp90β1 [1] = molecular target: T1, hsp90β1 (Mus musculus, UniProt P08113); test: Western blot of hsp90β1 in kidney homogenate and isolated kidney mitochondria; type: in vivo; details: db/db-HF-D vs db/db-HF-S, daily injection
T1 construct: We measured the effect of daily 17-DMAG injection on hsp90β1 levels in the kidney of db/db-HF mice; from tissue; host or cells: kidney homogenate and isolated kidney mitochondria of HF-fed db/db mice
T1 sequence (P08113 22-802): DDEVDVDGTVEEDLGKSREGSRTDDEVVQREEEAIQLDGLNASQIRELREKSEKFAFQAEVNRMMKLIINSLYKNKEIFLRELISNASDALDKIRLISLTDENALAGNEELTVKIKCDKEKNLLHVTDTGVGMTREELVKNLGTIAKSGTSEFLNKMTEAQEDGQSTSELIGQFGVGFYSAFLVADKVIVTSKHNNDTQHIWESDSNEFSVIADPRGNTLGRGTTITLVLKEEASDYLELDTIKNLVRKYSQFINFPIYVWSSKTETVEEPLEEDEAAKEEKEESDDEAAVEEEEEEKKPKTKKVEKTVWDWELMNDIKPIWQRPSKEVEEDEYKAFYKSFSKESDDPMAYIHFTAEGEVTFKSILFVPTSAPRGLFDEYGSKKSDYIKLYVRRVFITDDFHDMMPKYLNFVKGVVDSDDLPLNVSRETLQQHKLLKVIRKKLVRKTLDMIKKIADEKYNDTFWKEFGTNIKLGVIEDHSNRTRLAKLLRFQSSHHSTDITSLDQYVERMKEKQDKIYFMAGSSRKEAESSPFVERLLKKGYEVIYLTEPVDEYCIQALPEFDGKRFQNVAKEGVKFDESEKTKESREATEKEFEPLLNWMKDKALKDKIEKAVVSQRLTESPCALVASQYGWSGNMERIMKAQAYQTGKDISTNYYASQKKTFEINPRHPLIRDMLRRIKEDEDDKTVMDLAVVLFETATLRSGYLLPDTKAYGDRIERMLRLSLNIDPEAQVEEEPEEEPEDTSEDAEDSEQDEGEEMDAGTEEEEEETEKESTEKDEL
Procedure: (§1) Western blot or immunochemistry was performed with polyclonal (pAb) and/or monoclonal (mAb) primary antibodies to detect hsp90β1 and 3-NT levels as previously described. The primary antibodies used in western blots were as follows: mAb anti-3-NT (1:1000, clone 1A6, Millipore); rabbit pAb anti-3-NT (1:1000, Millipore); pAb anti-GRP94 (1:1000, Santa Cruz Biotechnology), mAb anti-Complex 1 (1:2000) and mAb anti-α-tubulin (1:1000). For the immunochemistry staining with mouse antibody, a specific procedure was performed as previously described to eliminate the direct interaction between antigen and secondary antibody.

[2] = test system: LA-induced [Ca2+]m efflux in kidney mitochondria; test: Linoleic acid-induced [Ca2+]m efflux in kidney mitochondria; type: in vivo, mouse
Procedure: (§2) Kidney mitochondria were prepared from db/+ or db/db mice and LA-induced [Ca^2+]m and peroxynitrite were assessed as previously described.

[3] = test system: db/db mice challenged with high fat diet (HF), ESRD model; test: Kidney function of HF-fed db/db mice (24 h urinary albumin, urine output, serum creatinine); type: in vivo, mouse
From the text: (§3) Male db/db (BKS.Cg-m+/+Lepr^db/J), age and sex matched db/+ mice were acquired from Jackson Laboratories at age of 10 weeks and housed 4/cage or less. Animals were habitat for 2 weeks in a temperature- and humidity-controlled facility with a 12:12-h light-dark cycle, fed ad libitum with RD (7012 Teklad LM-485, Harlan Laboratories) and had free access to water.
(§4) The mice were challenged with HF (60.3% calories from fat, TD.06414, Harlan Laboratories) starting at 12 weeks of age as depicted in FIG. 1A. The HF challenge was divided into two phases: the first phase lasted 2 weeks followed by a 4-week RD feeding. The second phase of HF feeding followed the 4-week RD interval and continued to the end of the experiments (5 weeks). At the beginning of the second HF feeding, db/db mice were randomly divided into 2 groups and intraperitoneally injected with either Saline (vehicle, db/db-HF-S) or 17-DMAG (6.5 μg/Kg bodyweight, db/db-HF-D). The animal protocols were approved by the Institutional Animal Care and Use Committee (0707-001), UT Health Science Center at San Antonio.
Urine collection and other physical parameters were measured following the schedule in FIG. 1A. 24 h urine samples were collected from individual mice and urinary albumin concentration was determined using a murine albumin enzyme-linked immunosorbent assay (Albuwell M Kit; Exocell, Philadelphia, Pa.). Serum creatinine concentrations were determined by the Creatinine Companion kit (Exocell).

[4] = test system: polyunsaturated fatty acid-induced mitochondrial Ca2+ efflux (PIMCE); details: applicant's previous studies, basis of the dose; cited from earlier work
[5] = test system: kidney glomeruli and tubules of HF-fed db/db mice; test: Kidney histopathology (HE, PAS, Masson's trichrome) of HF-fed mice; type: in vivo, mouse
From the text: as §3, §4
Formalin-fixed, paraffin-embedded kidney sections were stained with haematoxylin and eosin (HE), periodic acid-Schiff (PAS), or Masson's trichrome and analyzed to evaluate kidney damages in a blinded manner. The area of glomerular PAS staining was measured by image analysis using Image-Pro Plus 4.5 (Media Cybernetics, Silverspring, Md.). A semi-quantitative assessment was performed in HE stained slides to evaluate the extent of tubular damage and graded from 1 to 5 as follows: 1: vacuolation of cytoplasm in <20% of tubules; 2: vacuoles in 20% to 40% of tubules; 3: vacuoles in 40% to 60% tubules with minimal distortion of tubular structures; 4: vacuoles in 60% to 80% of tubules with large and marked distortion of tubular profiles, pyknotic nuclei, patches of tubular atrophy and tubular degeneration; and 5: >80% of tubules with severe vacuolation, or tubular atrophy and degeneration. The fractal collagen volume was assessed by point counter grid using ImageJ (NIH) program to quantify the blue stain in the trichrome-stained sections.

hsp90β1 [6] = molecular target: hsp90β1 (Homo sapiens, UniProt P14625); details: prolonged treatment of cells; cited from earlier work
Chain of hsp90β1 (Homo sapiens, UniProt P14625) (P14625 22-803): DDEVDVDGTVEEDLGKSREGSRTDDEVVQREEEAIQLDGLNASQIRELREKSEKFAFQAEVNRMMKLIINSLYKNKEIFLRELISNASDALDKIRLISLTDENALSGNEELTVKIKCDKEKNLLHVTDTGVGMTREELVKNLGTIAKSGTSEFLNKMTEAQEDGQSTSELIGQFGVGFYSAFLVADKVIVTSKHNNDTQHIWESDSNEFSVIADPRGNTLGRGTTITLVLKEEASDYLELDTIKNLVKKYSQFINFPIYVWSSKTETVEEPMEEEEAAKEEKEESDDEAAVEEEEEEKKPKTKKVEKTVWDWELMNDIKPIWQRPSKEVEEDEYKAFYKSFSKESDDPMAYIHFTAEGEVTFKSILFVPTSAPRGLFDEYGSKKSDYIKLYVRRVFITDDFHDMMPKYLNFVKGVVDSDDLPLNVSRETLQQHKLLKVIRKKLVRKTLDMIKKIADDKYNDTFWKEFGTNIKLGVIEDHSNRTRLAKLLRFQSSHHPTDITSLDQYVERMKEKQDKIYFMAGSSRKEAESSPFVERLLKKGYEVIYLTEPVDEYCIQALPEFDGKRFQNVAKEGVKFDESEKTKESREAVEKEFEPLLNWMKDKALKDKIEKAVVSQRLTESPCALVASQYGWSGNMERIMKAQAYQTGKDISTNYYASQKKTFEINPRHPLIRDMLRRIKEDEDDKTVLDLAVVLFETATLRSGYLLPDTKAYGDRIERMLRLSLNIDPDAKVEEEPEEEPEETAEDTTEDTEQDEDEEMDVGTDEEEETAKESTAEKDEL

[7] = test system: HF-fed db/db mice with ESRD; test: Kaplan-Meyer survival analysis of HF-fed mice; type: in vivo, mouse
From the text: as §4
Results presented as mean±S.E and Student's t-test was used to evaluate the differences between two groups. Kaplan-Meyer survival analysis was performed using the log-rank statistic to test for a significant difference among the survival curves. Differences were considered statistically significant at P<0.05.

[8] = test system: peroxynitrite generation in kidney mitochondria; test: Linoleic acid-induced peroxynitrite generation in kidney mitochondria; type: in vivo, mouse; details: db/db-HF-D; did not reach statistical significance; FIG. 4F
Procedure: as §2

[9] = test system: 3-nitrotyrosine (3-NT) in kidney; test: 3-NT levels in kidney by western blot and immunochemistry; type: in vivo, mouse; details: db/db-HF-D vs db/db-HF-S
Procedure: as §1

[10] = db/db-HF-D vs db/db-HF-S, FIG. 2G/2H

17-dimethylaminoethylamino-17-demethoxygeldanamycin [17-DMAG]
hsp90β1 levels in kidney homogenates (hsp90β1 [1]; FIG. 4A): similar | hsp90β1 levels in isolated kidney mitochondria (hsp90β1 [1]; FIG. 4B): significantly reduced | rate and amplitude of LA-induced [Ca2+]m signal, difference between db/db-HF-D and db/+ groups ([2]; db/db-HF-D vs db/+): no significant differences | LA-induced [Ca2+]m efflux in kidney mitochondria ([2]; db/db-HF-D vs db/db-HF-S, FIG. 4C-E): significantly diminished | rate and amplitude of LA-induced [Ca2+]m responses ([2]; db/db-HF-D vs db/db-HF-S, FIG. 4D, 4E): effectively attenuated | 24 h urine output ([3]; db/db-HF-D (6.5 μg/kg i.p. daily) vs db/db-HF-S, from 17th day of second HF feeding, FIG. 1E): significantly preserved | 24 h urinary albumin excretion (albuminuria) ([3]; db/db-HF-D (6.5 μg/kg i.p. daily, second HF challenge) vs db/db-HF-S, FIG. 1D): significantly diminished | serum creatinine, difference between db/db-HF-D and db/+ groups ([3]; db/db-HF-D, 6.5 μg/kg i.p. daily): no significant difference | serum creatinine compared to db/db-HF-S group ([3]; db/db-HF-D, 6.5 μg/kg i.p. daily, FIG. 1F): significantly lowered | inhibition on PIMCE [4]: maximal inhibition | toxicity to cells [4]: did not produce apparent toxicity | glomerular and tubular abnormalities in HF-fed db/+ mice ([5]; HF-fed db/+ mice treated with 17-DMAG, FIG. 2B): did not exhibit any glomerular and tubular abnormalities | tubular vacuolation ([5]; db/db-HF-D group (also in db/db-HF-S)): evidenced | segmental glomerulosclerosis (HE staining, 100×) ([5]; db/db-HF-D vs db/db-HF-S, FIG. 2C/2D): largely prevented | tubular atrophy and degeneration (HE staining) ([5]; db/db-HF-D vs db/db-HF-S, FIG. 2E/2F): dramatic protection | segmental glomerulosclerosis and mesangial matrix expansion (PAS, 200×), glomerular lesions [5, 10]: amiiorated | tubulointerstitial fibrosis (PAS-stained tubulointerstitium) [5, 10]: largely prevented | accumulation of tubulointerstitial collagen (Masson's trichrome) ([5]; db/db-HF-D vs db/db-HF-S, FIG. 2I/2J): effectively reduced | tubular damage (index, morphometric quantification) ([5]; db/db-HF-D vs db/db-HF-S, FIG. 2K): significant alleviation | mesangial matrix expansion (morphometric quantification) ([5]; db/db-HF-D vs db/db-HF-S, FIG. 2L): significant alleviation | collagen accumulation (morphometric quantification) ([5]; db/db-HF-D vs db/db-HF-S, FIG. 2M): significant alleviation | degradation and downregulation of hsp90β1 (hsp90β1 [6]): caused degradation and downregulation | mortality in HF-fed db/+ mice ([7]; db/+-HF-S and db/+-HF-D groups): no mortality | survival rate ([7]; db/db-HF-D vs db/db-HF-S, log-rank, FIG. 3): significantly improved | LA-induced peroxynitrite generation [8]: attenuated | 3-NT in kidney sections by immunohistochemistry ([9]; FIG. 5C-E): effectively reduced | 3-NT level, bands with MW<50kDa, western blot with polyclonal anti-3-NT antibody ([9]; kidney homogenates, FIG. 5A): significant 3-NT level reduction | 3-NT levels in proteins <50 kDa, western blot with monoclonal antibody ([9]; kidney homogenates, FIG. 5B): significantly lowered
